The text below walks through data of patent US20120003177A1 (priority 2008, published 2012).

Data set [1] relates to SKOV-3 human ovarian cancer cell line. As to the kind of experiment: MTT cytotoxicity of polycurcumins to SKOV-3 cells (72 h treatment). The following applies: for IC50: Homo sapiens. The protocol: The human ovarian carcinoma SKOV-3 cell line was purchased from American type culture collection (ATCC). Cells were cultured in RPMI 1640 medium supplemented with 10% fetal bovine serum (HyClone, Logan, Utah) and grown at 37° C. in a humidified atmosphere of 5% CO2 (v/v) in air. All of the experiments involving cells were performed on cells in the exponential growth phase.
The cytotoxicity of polycurcumins was determined using the standard 3-(4,5-dimethylthiazolyl-2)-2,5-diphenyltetrazolium bromide (MTT) cell proliferation kit (ATCC, Manassas, Va.) according to manufacturer's protocol. In brief, SKOV-3 cells were seeded onto 96-well plates with a density of 15,000 cells per well and incubated at 37° C. in a humidified atmosphere of 95% air and 5% CO2 for 16 h. The medium in each well was replaced with 200 μL of culture medium containing the treatments and cultured for 72 h. The medium in each well was then replaced with fresh media and the cells were incubated for another 24 h. The incubation medium was then replaced with 100 μL of fresh medium and 10 μL of MIT reagent. After 6 h, 100 μL of detergent reagent was added to each well and incubated for 18 h at room temperature in the dark until all the crystals dissolved. The absorbance intensity at 570 nm was recorded on a Bio-Rad (model 550) microplate reader. Cell viability is defined as the percent live cells compared with untreated controls.
For each polycurcumin tested, the commoners such as 3,3′-dithiodipropionic acid, pyromellitic dianhydride, tri(ethylene glycol) divinyl ether and PEG, were used as controls.

For data set [2] the following is noted: PBS at pH 7.2; cited from earlier work.
For data set [3] the following is noted: cited from earlier work.
Data set [4] has as its system DU145 prostate carcinoma, A549 lung carcinoma, and HT29 colon carcinoma. To be noted: read-out: IC50 (50% inhibitory concentration); variety of cancer cell lines; cited from earlier work.

Entries after “also recorded” stand apart in the source; their conditions may differ. Read-outs that look alike come from different tables or passages of the source.

As to `O=C(O)CCSSCCC(=O)O` [3,3′-dithiodipropionic acid], the “cytotoxicity of comonomer controls against SKOV-3 cells” value (“cytotoxicity of comonomer controls” below) in data set [1] was “no significant cytotoxicity”. For the compound `C=COCCOCCOCCOC=C` [tri(ethylene glycol) divinyl ether], the “cytotoxicity of comonomer controls” value in data set [1] (SKOV-3, MTT, comonomers as controls) is given as “no significant cytotoxicity”. Turning to `O=c1oc(=O)c2cc3c(=O)oc(=O)c3cc12` [pyromellitic dianhydride], the “cytotoxicity of comonomer controls” value in data set [1] is “no significant cytotoxicity”. `COc1cc(C=CC(=O)CC(=O)C=Cc2ccc(O)c(OC)c2)ccc1O` [Curcumin, 1,7-bis-(4-hydroxy-3-methoxyphenyl)-hepta-1,6-diene-3,5-dione]: the “half life (t1/2)” value in data set [2] is on record as “less than 10 min”. Besides, the “solubility of free curcumin in water, in words” value in data set [3] was “almost insoluble in water; also recorded: practically insoluble in water”. The IC50 in data set [4] was 10 to 75 µM; in data set [1] (SK-OV-3, read-out: IC50, curcumin equivalent dose), 21 µM; in data set [1] (SK-OV-3, read-out: IC50-C (IC50 in terms of curcumin-equivalent dose)), 7.8 µg/mL. Take polyethylene glycol [PEG]: in data set [1], the “cytotoxicity of comonomer controls” value is “no significant cytotoxicity”.
